Data from patent publication US7745465B2, “Method of enhancing cellular production of molecular chaperone, hydroxylamine derivatives useful for enhancing the chaperone production and the preparation thereof” (CytRx Corporation, priority 1995, dated 2010).

Key:
hsp72 [1] = assay: hsp72 content of K562 tumor cells by flow-cytometry; type: cell-based, human; conditions: for hsp72 expression compared to heat shock alone: 5×10^−5 M during 42° C. for 2 hours, 16 hrs recovery, maleate
Text: Human K562 cells, a myeloid tumor cell line derived from a patient with chronic myelogenous leukemia in blast phase (ATCC, CCL243) was used (Lozzio, B C and Lozzio, B B Blood 45:321, 1975).

hsp72 [2] = assay: HgCl2 stress induced hsp72 level in U-937 cells; type: cell-based, human; conditions: 10^−5 M, 0.5 μg/ml HgCl2, 6 hours
Description: From the applied cells the 3T3 and L-929 mouse fibroblasts were cultured in MEM medium and grew in monolayer, the U-937 human leukemia cells were maintained in RPMI-1640 medium, in suspension culture, while the HeLa human epithelial cells were cultured in DMEM medium and in monolayer form. Cell cultures were maintained as described in example 6.2 (a) with the difference that cells were cultured in the above mentioned culture mediums.
Experiments were carried out applying stress before and after the drug treatment. Stress was provoked by heat, by chemical agent, HgCl2 treatment. The test compounds were applied in the treatments at the 10^−5 M concentration.
These experiments were performed on HeLa, human epithelial and U-937, human leukemia cells using HgCl2 to induce stress response. Drug treatment was carried out before cells were exposed to the stress. Test cultures were prepared and treatments were performed as in the experiments with the 3T3 cells. After the drug treatment cells were incubated at 37° C. for 15 min. than all the cultures except two (non stressed control) were exposed to 0.5 μg/ml concentration of HgCl2 and the incubation was followed. The induced amount of hsp72 was measured 6 hours after the exposure to stress.

HSPs = assay: Western blot overview of all HSPs in heat shocked H9c2 heart cells; type: cell-based, rat; conditions: added 16 hours before the heat treatment
Description: Experiments set forth in this section were conducted to determine whether N-[2-hydroxy-3-(1-piperidinyl)propoxy]-3-pyridinecarboximidoyl chloride maleate acts to increase the expression of molecular chaperon by a cell. The accumulation of different heat shock proteins subsequent to a period of exposure to heat shock alone, and to heat shock in combination with N-[2-hydroxy-3-(1-piperidinyl)propoxy]-3-pyridinecarboximidoyl chloride maleate administration, was examined by adding 10^−5 M of N-[2-hydroxy-3-(1-piperidinyl)propoxy]-3-pyridinecarboximidoyl chloride maleate before, during, or immediately after hyperthermic treatment of heart myogenic cells (H9c2 cells).
The embryonic rat heart-derived cell line H9c2 was obtained from European Collection of Animal cell Cultures (ECACC) (88092904). The cells were maintained at 37° C. in Dulbecco's modified Eagle's medium (DMEM) supplemented with 10% fetal calf serum (GIBCO) in JOUAN C02 thermostat (5% CO2).
Heat shock was performed at 43° C. in CO2 thermostat for the given time intervals (20, 40, 60, 90 and 120 min.). Cells were then taken back to 37° C. for 6 hours and proteins were extracted for SDS-PAGE. […]
Protein concentration was determined from 5:1 samples by the Bradford assay (M. M. Braford, Anal. Biochem., 72: 248-254 (1976)) in three parallel. […]

[3] = system: mitochondrial ATP synthesis; assay: Coupling of oxidative phosphorylation / mitochondrial ATP synthesis after heat shock (oxygraph); type: cell-based, Saccharomyces cerevisiae; conditions: 10 to 100 μM, one hour at 25° C. before 42° C. heat shock
Description: The experimental protocol for determining the impairment of oxidative phosphorylation and mitochondrial ATP synthesis in Saccharomyces cerevisiae is provided in Patriarca et al., Bio-chemistry and Cell Biology, 70:207-214, 1992, said reference being fully incorporated herein by reference.
To S. cerevisiae cells that were maintained at 25° C., varying concentration of N-[2-hydroxy-3-(1-piperidinyl)propoxy]-3-piridinecarboximidoyl chloride maleate was introduced (concentrations between 10 to 100 μM), cells were then incubated for one hour at 25° C. in the presence of N-[2-hydroxy-3-(1-piperidinyl)propoxy]-3-piridinecarboximidoyl chloride maleate. The temperature was then increased to 42° C., and the oxygraph measurements were taken as described in the Patriarca reference.

O=C(O)/C=C\C(=O)O.OC(CON=C(Cl)c1cccnc1)CN1CCCCC1 (stereo not drawn) [N-[2-hydroxy-3-(1-piperidinyl)-propoxy]3-pyridinecarboximidoyl chloride maleate]
hsp72 expression compared to heat shock alone (hsp72 [1]; listed as N-[2-hydroxy-3-(1-piperidinyl)propoxy]-3-piridinecarboximidoyl chloride maleate): enhanced level of hsp72
hsp72 expression compared to heat shock alone (hsp72 [1]; listed as N-[2-hydroxy-3-(1-piperidinyl)propoxy]-3-piridinecarboxymidoyl chloride maleate): significant increase of hsp72 expression
hsp72 levels (hsp72 [1]; compound alone, no heat shock): did not increase hsp72 levels
increase of the stress induced hsp72 level relative to the stress exposed control (hsp72 [2]): more than 20%
level of all HSPs increased further as compared to that observed upon heat stress (HSPs): at least twofold
protection from the impairment of mitochondrial ATP synthesis [3]: 40-60%
